Test systems include MDA-MB-231 breast; CCRF-CEM leukemia; RXF 393 renal; SW-620 colon; A498 renal; SR leukemia; SK-MEL-5 melanoma; SK-OV-3 ovarian; SF-268 CNS; CAKI-1 renal.
Holding throughout (test): NCI tumour cell line growth inhibition, 48 h

Molecules are shown by their SMILES.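 Test compounds were applied to cells in 96-well plates for 48 hours at 5 doses. The concentration for 50% growth inhibition is given as GI50. TGI marks complete inhibition of growth.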

For the compound `Cc1ccc(NC(=O)CC2CC2)cc1-c1ccc(C(=O)NCC2CC2)cc1`, the GI50 is more than 25 µM with MDA-MB-231 breast; more than 25 µM with CCRF-CEM leukemia; more than 25 µM with RXF 393 renal; more than 25 µM in the assay with SW-620 colon; more than 25 µM in the assay on A498 renal; 13.5 µM in the assay with SR leukemia. Also, the GI50 in the assay with SK-MEL-5 melanoma was more than 17.5 µM; in the assay on SK-OV-3 ovarian, more than 25 µM; in the assay on SF-268 CNS, more than 25 µM; in the assay on CAKI-1 renal it was more than 25 µM. Moreover, the TGI in the assay on MDA-MB-231 breast, with CCRF-CEM leukemia, in the assay on RXF 393 renal, in the assay on SW-620 colon, in the assay on A498 renal and in the assay on SR leukemia was more than 25 µM in each case. For the same compound, the TGI with SK-MEL-5 melanoma, in the assay on SK-OV-3 ovarian, with SF-268 CNS and in the assay with CAKI-1 renal was more than 25 µM throughout.
Turning to `Cc1ncc(C(=O)Nc2ccc(CN3CCN(C)CC3)c(C(F)(F)F)c2)cc1C#Cc1cnc(N)c2ccncc12`, the GI50 in the assay on MDA-MB-231 breast was 0.526 µM; in the assay on CCRF-CEM leukemia, 2.73 µM; with RXF 393 renal, 0.647 µM; with SW-620 colon, 1.49 µM; in the assay on A498 renal it was 1.35 µM; in the assay on SR leukemia it was 2.33 µM. For the same compound, the GI50 in the assay with SK-MEL-5 melanoma was 1.6 µM; in the assay with SK-OV-3 ovarian, 2.79 µM; with SF-268 CNS it was 0.702 µM; with CAKI-1 renal it was 1.11 µM. The TGI amounted to 2.02 µM with MDA-MB-231 breast; 10.8 µM in the assay on CCRF-CEM leukemia; 1.87 µM in the assay with RXF 393 renal; 3.3 µM in the assay on SW-620 colon; 2.92 µM in the assay with A498 renal; 29.8 µM in the assay on SR leukemia. For the same compound, the TGI with SK-MEL-5 melanoma was 2.98 µM; in the assay with SK-OV-3 ovarian it was 7.13 µM; with SF-268 CNS it was 2.99 µM; with CAKI-1 renal, 2.66 µM.
Consider `COc1cc2c(c(OC)c1OC)-c1ccc(SC)c(=O)cc1C(NC=O)CC2` (configuration not stated), for which the TGI is more than 4.64 µM in the assay on MDA-MB-231 breast; more than 74.8 µM in the assay on CCRF-CEM leukemia; more than 67.9 µM in the assay with RXF 393 renal; more than 100 µM in the assay on SW-620 colon; 1.76 µM in the assay with A498 renal; 36.6 µM with SR leukemia. In addition, the TGI in the assay on SK-MEL-5 melanoma was less than 0.01 µM; with SK-OV-3 ovarian it was 63.9 µM; with SF-268 CNS, more than 100 µM; with CAKI-1 renal, more than 83 µM.
Regarding `CCOC(=O)C(Cc1ccc(CCCC(=O)NCCC(=O)Nc2ccc3nc(C)sc3c2)cc1)C(=O)OCC`, the GI50 in the assay on MDA-MB-231 breast is 52.5 µM; in the assay on CCRF-CEM leukemia, 28.6 µM; in the assay on RXF 393 renal it was 36.4 µM; with SW-620 colon, more than 93.2 µM; in the assay with A498 renal, more than 100 µM; with SR leukemia, 50.8 µM. The GI50 in the assay with SK-MEL-5 melanoma was 15.4 µM; with SK-OV-3 ovarian, more than 100 µM; with SF-268 CNS, more than 78 µM; in the assay on CAKI-1 renal, 49.1 µM. In addition, the TGI with MDA-MB-231 breast is more than 100 µM; with CCRF-CEM leukemia, more than 89.3 µM; in the assay on RXF 393 renal, more than 100 µM; in the assay on SW-620 colon it was more than 100 µM; in the assay on A498 renal, more than 100 µM; in the assay on SR leukemia, more than 100 µM. The TGI is 29.2 µM in the assay with SK-MEL-5 melanoma, more than 100 µM in the assay on SK-OV-3 ovarian, more than 100 µM in the assay on SF-268 CNS and more than 100 µM in the assay on CAKI-1 renal.
As for `CNCC#Cc1c(F)ccc2c1/C(=C/c1[nH]ccc1OC)C(=O)N2`, the GI50 in the assay with MDA-MB-231 breast was 0.416 µM; with CCRF-CEM leukemia it was 0.107 µM; in the assay with RXF 393 renal, 0.0454 µM; in the assay with SW-620 colon, 0.136 µM; in the assay with A498 renal, 0.179 µM; in the assay with SR leukemia, 0.0715 µM. For the same compound, the GI50 with SK-MEL-5 melanoma is 0.21 µM; in the assay on SK-OV-3 ovarian, 0.104 µM; in the assay on SF-268 CNS, 0.279 µM; in the assay on CAKI-1 renal it was 0.0238 µM. In addition, the TGI in the assay on MDA-MB-231 breast amounted to 2.18 µM; with CCRF-CEM leukemia it was 0.954 µM; with RXF 393 renal it was 0.147 µM; with SW-620 colon it was 2.38 µM; in the assay on A498 renal, 1.41 µM; with SR leukemia, 0.513 µM. The TGI in the assay on SK-MEL-5 melanoma came out at 1.42 µM; with SK-OV-3 ovarian it was 3.52 µM; with SF-268 CNS, 2.1 µM; in the assay on CAKI-1 renal it was 0.521 µM.
As to `CCOC(=O)Nc1ccc(C)c(NC(=O)OCC)c1`, the TGI in the assay on MDA-MB-231 breast, with CCRF-CEM leukemia, in the assay on RXF 393 renal, in the assay with SW-620 colon, with A498 renal and in the assay with SR leukemia was more than 100 µM each time. The TGI with SK-MEL-5 melanoma, in the assay on SK-OV-3 ovarian, in the assay with SF-268 CNS and in the assay with CAKI-1 renal was more than 100 µM each time.
Take `COc1cc(-c2cc(-c3cc4c([nH]c5ccccc54)c(-c4cc(OC)c(OC)c(OC)c4)n3)cc(-c3ccccc3)n2)cc(OC)c1OC`: the GI50 in the assay with MDA-MB-231 breast is 3.59 µM; in the assay with CCRF-CEM leukemia, 3.6 µM; in the assay with RXF 393 renal, 2.7 µM; in the assay on SW-620 colon, 3.62 µM; in the assay on A498 renal, 1.64 µM; with SR leukemia, 3.56 µM. The GI50 with SK-MEL-5 melanoma was 2.46 µM; in the assay with SK-OV-3 ovarian it was 5 µM; in the assay on SF-268 CNS it was 4.96 µM; in the assay with CAKI-1 renal, 5.67 µM. In addition, the TGI with MDA-MB-231 breast was more than 100 µM; with CCRF-CEM leukemia, more than 100 µM; with RXF 393 renal it was 12.2 µM; with SW-620 colon, more than 100 µM; in the assay with A498 renal, 7.96 µM; with SR leukemia it was more than 100 µM. For the same compound, the TGI in the assay on SK-MEL-5 melanoma was 7.61 µM; with SK-OV-3 ovarian it was 51.9 µM; in the assay with SF-268 CNS, more than 100 µM; in the assay on CAKI-1 renal it was more than 100 µM.
Regarding `CS(=O)(=O)CCNCc1nc(-c2ccc3ncnc(Nc4ccc(OCc5cccc(C(F)(F)F)c5)cc4)c3c2)cs1`, the GI50 in the assay on MDA-MB-231 breast was 12.6 µM; in the assay with CCRF-CEM leukemia, more than 25 µM; in the assay with RXF 393 renal, 5.57 µM; with SW-620 colon, more than 25 µM; in the assay with A498 renal, 4.1 µM; with SR leukemia, more than 22.2 µM. Besides, the GI50 with SK-MEL-5 melanoma was more than 21.6 µM; with SK-OV-3 ovarian it was 6.01 µM; in the assay with SF-268 CNS, 12.8 µM; in the assay on CAKI-1 renal, more than 25 µM. Moreover, the TGI with MDA-MB-231 breast, in the assay with CCRF-CEM leukemia, with RXF 393 renal, in the assay on SW-620 colon, in the assay on A498 renal and with SR leukemia was more than 25 µM in each case. The TGI is more than 25 µM in the assay on SK-MEL-5 melanoma, more than 21.6 µM with SK-OV-3 ovarian, more than 25 µM with SF-268 CNS and more than 25 µM in the assay with CAKI-1 renal.
For `Cc1nn(-c2ccc(Cl)cc2)c2nc3c(nc12)C(=O)c1ccccc1-3`, the GI50 in the assay on MDA-MB-231 breast is 82.7 µM; in the assay with CCRF-CEM leukemia it was more than 100 µM; with RXF 393 renal it was more than 100 µM; with SW-620 colon, more than 100 µM; in the assay on A498 renal, 31.7 µM; in the assay with SR leukemia it was more than 100 µM. Also, the GI50 in the assay on SK-MEL-5 melanoma was more than 100 µM; with SK-OV-3 ovarian it was 47.3 µM; in the assay on SF-268 CNS it was more than 100 µM; in the assay on CAKI-1 renal, more than 100 µM. Further, the TGI in the assay on MDA-MB-231 breast, in the assay on CCRF-CEM leukemia, with RXF 393 renal, with SW-620 colon, in the assay on A498 renal and in the assay with SR leukemia was more than 100 µM throughout. The TGI in the assay with SK-MEL-5 melanoma, in the assay with SK-OV-3 ovarian, in the assay with SF-268 CNS and with CAKI-1 renal was more than 100 µM in each case.
On to `CCSc1ncnc2c1ncn2C1OC(CO)C(O)C1O` (configuration not stated), for which the GI50 was 0.745 µM with MDA-MB-231 breast; 0.146 µM in the assay on CCRF-CEM leukemia; 16 µM with RXF 393 renal; 0.3 µM in the assay with SW-620 colon; 0.081 µM in the assay with A498 renal; 25.3 µM in the assay on SR leukemia. In addition, the GI50 is 2.83 µM in the assay on SK-MEL-5 melanoma, 0.754 µM with SK-OV-3 ovarian, 1.02 µM with SF-268 CNS and 0.272 µM in the assay on CAKI-1 renal. Also, the TGI in the assay with MDA-MB-231 breast is more than 100 µM; with CCRF-CEM leukemia, more than 100 µM; in the assay with RXF 393 renal, more than 90.2 µM; in the assay with SW-620 colon, more than 100 µM; in the assay with A498 renal, 1.92 µM; in the assay with SR leukemia, more than 100 µM. Besides, the TGI is more than 100 µM in the assay with SK-MEL-5 melanoma, more than 100 µM with SK-OV-3 ovarian, more than 100 µM with SF-268 CNS and more than 55.4 µM with CAKI-1 renal.
Regarding `Cn1cc(C2=C(c3cn(CCCCO)c4ccccc34)C(=O)NC2=O)c2ccccc21`, the GI50 in the assay with MDA-MB-231 breast is 17.2 µM; in the assay with CCRF-CEM leukemia, 6 µM; in the assay on RXF 393 renal it was 3.92 µM; in the assay with SW-620 colon, 9.26 µM; in the assay with A498 renal, 6.32 µM; with SR leukemia, 6.05 µM. The GI50 in the assay on SK-MEL-5 melanoma was 6.26 µM; with SK-OV-3 ovarian it was 8.23 µM; in the assay with SF-268 CNS, 8.63 µM; with CAKI-1 renal, 11.8 µM. Moreover, the TGI in the assay with MDA-MB-231 breast was more than 25 µM; in the assay with CCRF-CEM leukemia it was more than 25 µM; in the assay with RXF 393 renal, 10.8 µM; in the assay on SW-620 colon, more than 25 µM; in the assay with A498 renal, 22.2 µM; in the assay on SR leukemia, 21.4 µM. The TGI is more than 20.5 µM in the assay with SK-MEL-5 melanoma, more than 25 µM in the assay with SK-OV-3 ovarian, more than 25 µM in the assay with SF-268 CNS and more than 25 µM in the assay with CAKI-1 renal.
Consider `CC(=O)OC12C=CC(=O)N1c1ccccc1C(=O)O2` (configuration not stated), for which the GI50 in the assay with MDA-MB-231 breast and in the assay on A498 renal was more than 100 µM throughout. Besides, the TGI in the assay on MDA-MB-231 breast, in the assay on CCRF-CEM leukemia, in the assay on RXF 393 renal, in the assay with SW-620 colon, in the assay on A498 renal and in the assay on SR leukemia was more than 100 µM in each case. Moreover, the TGI in the assay with SK-MEL-5 melanoma, in the assay on SK-OV-3 ovarian, in the assay with SF-268 CNS and with CAKI-1 renal was more than 100 µM each time.
